Experimental data: patent US8796231B2, “Pest control composition” (Sumitomo Chemical Company, Limited, priority 2010, dated 2014)

Columns and labels:
[1] = tested on: Spodoptera litura; assay: Test Example 1: cabbage leaf immersion test, insecticidal rate on third-instar larvae; type: in vivo; conditions: cabbage leaf immersed 60 seconds, after 4 days, 3 replicates
Protocol: (§1) A suspension concentrate containing 10.0% by weight of etoxazole [product name: Baroque (registered trademark) flowable, manufactured by Kyoyu Agri Co., Ltd.] was diluted with water containing 0.02% by volume of a spreading agent [product name: Sindain (registered trademark), manufactured by Sumitomo Chemical Co., Ltd.] so that the concentration of etoxazole became 25 ppm.
(§2) A suspension concentrate containing 11.7% by weight of spinetoram (weight ratio of spinetoram J:spinetoram L=75:25) was diluted with water containing 0.02% by volume of a spreading agent [product name: Sindain (registered trademark), manufactured by Sumitomo Chemical Co., Ltd.] so that the concentration of spinetoram became 7.31 ppm.
(§3) The water dilution of spinetoram was mixed with an equal amount of the water dilution of etoxazole to prepare a test solution.
The water dilution of etoxazole and the water dilution of spinetoram were respectively diluted with an equal amount of water containing 0.02% by volume of the same spreading agent as mentioned above to prepare a 12.5 ppm water dilution of etoxazole and a 3.66 ppm water dilution of spinetoram.
A cabbage was planted in a pot (volume: 860 ml) and grown until the fourth leaf stage. The leaves of the cabbage were cut off one by one. […]
An insect death rate was calculated according to the following equation. […]

[2] = tested on: Panonychus citri; assay: Test Example 2: Satsuma mandarin orange leaf piece immersion test, insecticidal rate on female imagoes; type: in vivo; conditions: mandarin orange leaf piece immersed 60 seconds, after 6 days, 3 replicates
Protocol: as §1, with “1.56” for “25”
as §2, with “6.25” for “7.31”
as §3
The water dilution of etoxazole and the water dilution of spinetoram were respectively diluted with an equal amount of water containing 0.02% by volume of the same spreading agent as mentioned above to prepare a 0.78 ppm water dilution of etoxazole and a 3.13 ppm water dilution of spinetoram.
Leaves were taken from a cultivated Satsuma mandarin orange tree, and cut into 2-cm-square pieces. One of the pieces was immersed in the test solution for 60 seconds. […]
An insecticidal rate was calculated in the same manner as Test Example 1. […]

| Compound | Insecticidal rate ([1]; 3.66 ppm active ingredient) [%] | Insecticidal rate ([2]; 3.13 ppm active ingredient) [%] | Insecticidal rate ([1]; 12.5 ppm active ingredient) [%] | Insecticidal rate ([2]; 0.78 ppm active ingredient) [%] |
| --- | --- | --- | --- | --- |
| spinetoram | 43.3 | 23.1 |  |  |
| CCOc1cc(C(C)(C)C)ccc1C1COC(c2c(F)cccc2F)=N1 (stereo not shown) [Etoxazole, 2-(2,6-difluorophenyl)-4-[4-(1,1-dimethylethyl)-2-ethoxyphenyl]-4,5-dihydrooxazole] |  |  | 26.7 | 7.7 |
